Measured values: ChEMBL document CHEMBL4402583, “Rational Substitution of ε-Lysine for α-Lysine Enhances the Cell and Membrane Selectivity of Pore-Forming Melittin” (J Med Chem, 2020)
≈ marks a conversion by molar mass, not a printed value.

Legend:
Staphylococcus aureus [1] = experiment: Antibacterial activity against methicillin-sensitive Staphylococcus aureus assessed as reduction in bacterial growth incubated for 24 hrs by broth microdilution method; assay type: functional
Enterococcus = experiment: Antibacterial activity against vancomycin-resistant Enterococcus assessed as reduction in bacterial growth incubated for 24 hrs by broth microdilution method; assay type: functional
Staphylococcus aureus [2] = experiment: Antibacterial activity against methicillin-resistance Staphylococcus aureus assessed as reduction in bacterial growth incubated for 24 hrs by broth microdilution method; assay type: functional
NHDF [3] = experiment: Cytotoxicity against HDF cells at 250 ug/ml incubated for 24 hrs by Alexa Fluor […] phalloidin-FITC/Hoescht dye staining based fluorescence microscopic analysis; assay type: cell-based; conditions: human
Lipid bilayer [4] = experiment: Induction of pore formation in negatively charged DOPE/DOPG large unilamellar vesicles assessed as calcein release at 0.39 to 50 uM measured for 60 mins by fluorescence based assay
Lipid bilayer [5] = experiment: Induction of pore formation in zwitterionic DOPC/cholesterol large unilamellar vesicles assessed as calcein release at 0.39 to 50 uM measured for 60 mins by fluorescence based assay
[6] = Cytotoxicity against HDF cells assessed as minimum cytotoxic concentration incubated for 24 hrs by MTS assay; assay type: cell-based; conditions: human, HDF cells (NHDF, human dermal fibroblasts)
Candida albicans = experiment: Antifungal activity against Candida albicans assessed as reduction in fungal growth incubated for 24 hrs by broth microdilution method; assay type: functional
[7] = Cytotoxicity against HDF cells assessed as minimum cytotoxic concentration incubated for 24 hrs by Alexa Fluor […] phalloidin-FITC/Hoescht dye staining based fluorescence microscopic analysis; assay type: cell-based; conditions: human, HDF cells (NHDF, human dermal fibroblasts)
Pseudomonas aeruginosa = experiment: Antibacterial activity against Pseudomonas aeruginosa assessed as reduction in bacterial growth incubated for 24 hrs by broth microdilution method; assay type: functional
[8] = Cytotoxicity against HDF cells assessed as cell viability at 250 ug/ml incubated for 24 hrs by MTS assay relative to control; assay type: cell-based; conditions: human, HDF cells (NHDF, human dermal fibroblasts); read-out: Activity
Enterobacteriaceae = experiment: Antibacterial activity against Carbapenem-Resistant Enterobacteriaceae assessed as reduction in bacterial growth incubated for 24 hrs by broth microdilution method; assay type: functional
NHDF [9] = experiment: Cytotoxicity against HDF cells assessed as reduction in metabolic activity at 500 ug/ml incubated for 24 hrs by MTS assay relative to control; assay type: ADME, cell-based; set-up: scale not given: the % may be the effect or the level left; conditions: human
Acinetobacter baumannii = experiment: Antibacterial activity against multidrug-resistant Acinetobacter baumannii assessed as reduction in bacterial growth incubated for 24 hrs by broth microdilution method; assay type: functional
[10] = Cytotoxicity against HDF cells assessed as cell viability at 125 ug/ml incubated for 24 hrs by MTS assay relative to control; assay type: cell-based; conditions: human, HDF cells (NHDF, human dermal fibroblasts); read-out: Activity
Staphylococcus aureus [11] = experiment: Antibacterial activity against Staphylococcus aureus assessed as reduction in bacterial growth incubated for 24 hrs by broth microdilution method; assay type: functional
Enterococcus faecalis [12] = experiment: Ratio of MIC for vancomycin-resistant Enterococcus faecalis 1010 to MIC for Mel-5-resistant vancomycin-resistant Enterococcus faecalis 1010 incubated for 24 hrs by broth microdilution method; assay type: functional
Staphylococcus aureus [13] = experiment: In vivo antibacterial activity against Staphylococcus aureus ATCC 29213 infected in C57BL/6 mouse assessed as reduction in bacterial burden by measuring log10 CFU/cornea at 0.3% administered topically as two times on day 1, four times on day 2 and two times on day 3 measured at 48 hrs post-final dose by 10 fold serial dilution method (reference value: 6.5 +/- 0.7 log10CFU); assay type: functional
Enterococcus faecalis [14] = experiment: Antibacterial activity against Mel-5-resistant vancomycin-resistant Enterococcus faecalis 1010 assessed as reduction in bacterial growth measured after 24 hrs by broth microdilution method; assay type: functional; conditions: Enterococcus faecalis, 1010, 24 h
Enterococcus faecalis [15] = experiment: Antibacterial activity against vancomycin-resistant Enterococcus faecalis 1010 assessed as reduction in bacterial growth measured after 24 hrs by broth microdilution method; assay type: functional; conditions: Enterococcus faecalis, 1010, 24 h
Enterococcus faecalis [16] = experiment: Ratio of MIC for Mel-5-resistant vancomycin-resistant Enterococcus faecalis 1010 to MIC for vancomycin-resistant Enterococcus faecalis 1010 incubated for 24 hrs by broth microdilution method; assay type: functional
Enterococcus faecalis [17] = experiment: Resistance index, ratio of MIC for vancomycin-resistant Enterococcus faecalis 1010 measured after 14 serial passages by broth microdilution method to MIC for vancomycin-resistant Enterococcus faecalis 1010 incubated for 24 hrs by broth microdilution method; assay type: functional

Compound `CC[C@H](C)[C@H](NC(=O)CN)C(=O)NCC(=O)N[C@@H](C)C(=O)N[C@H](C(=O)N[C@@H](CC(C)C)C(=O)NCCC[C@@H](CN)C(=O)N[C@H](C(=O)N[C@@H](CC(C)C)C(=O)N[C@H](C(=O)N[C@H](C(=O)NCC(=O)N[C@@H](CC(C)C)C(=O)N1CCC[C@H]1C(=O)N[C@@H](C)C(=O)N[C@@H](CC(C)C)C(=O)N[C@H](C(=O)N[C@@H](CO)C(=O)N[C@@H](Cc1c[nH]c2ccccc12)C(=O)N[C@H](C(=O)N[C@@H](CCCCN)C(=O)N[C@@H](CCCNC(=N)N)C(=O)N[C@@H](CCCCN)C(=O)N[C@@H](CCCNC(=N)N)C(=O)N[C@@H](CCC(N)=O)C(=O)N[C@@H](CCC(N)=O)C(N)=O)[C@@H](C)CC)[C@@H](C)CC)[C@@H](C)O)[C@@H](C)O)C(C)C)C(C)C` has an MIC (Staphylococcus aureus [1]) of 4 to 32 µg/mL (≈ 1.41 to 11.2 µM), an MIC50 (Staphylococcus aureus [1]) of 16 µg/mL (≈ 5.62 µM) and an MIC (Enterococcus) of 4 to 32 µg/mL (≈ 1.41 to 11.2 µM). For the same compound, the MIC50 (Enterococcus) was 8 µg/mL (≈ 2.81 µM), the MIC50 (Staphylococcus aureus [2]) was 16 µg/mL (≈ 5.62 µM) and the Activity (NHDF [3]) was “Toxic”. For the same compound, the Activity (Lipid bilayer [4]) was 41.8%, the Activity (Lipid bilayer [5]) was 7.8% and the MCC at 24 h [6] was > 125 µg/mL. The MIC (Candida albicans) was 4 to 8 µg/mL (≈ 1.41 to 2.81 µM), the MIC50 (Candida albicans) was 4 µg/mL (≈ 1.41 µM) and the MCC at 24 h [7] was > 125 µg/mL. For the same compound, the MIC (Pseudomonas aeruginosa) was 8 to 64 µg/mL (≈ 2.81 to 22.5 µM), the MIC50 (Pseudomonas aeruginosa) was 16 µg/mL (≈ 5.62 µM) and the viability at 24 h, 250 ug/ml [8] was 32.4%. For the same compound, the MIC (Enterobacteriaceae) was 4 to 64 µg/mL (≈ 1.41 to 22.5 µM), the MIC50 (Enterobacteriaceae) was 8 µg/mL (≈ 2.81 µM) and the Activity (NHDF [9]) was 100%. It also gave an MIC (Acinetobacter baumannii) of 2 to 4 µg/mL (≈ 0.703 to 1.41 µM), an MIC50 (Acinetobacter baumannii) of 2 µg/mL (≈ 0.703 µM) and a viability at 24 h, 125 ug/ml [10] of 112%. For the same compound, the MIC (Staphylococcus aureus [11]) was 8 to 32 µg/mL (≈ 2.81 to 11.2 µM).
In the case of `COc1c(N2CCNC(C)C2)c(F)cc2c(=O)c(C(=O)O)cn(C3CC3)c12` (stereo not given) [GATIFLOXACIN], the Ratio (Enterococcus faecalis [12]) was 8, the Activity (Staphylococcus aureus [13]) was 2.5 log10CFU and the MIC (Enterococcus faecalis [14]) was 8 µg/mL (≈ 21.3 µM). For the same compound, the MIC (Enterococcus faecalis [15]) was 4 µg/mL (≈ 10.7 µM).
With `CCCCCCCCCC(=O)N[C@@H](Cc1c[nH]c2ccccc12)C(=O)N[C@H](CC(N)=O)C(=O)N[C@@H](CC(=O)O)C(=O)N[C@@H]1C(=O)NCC(=O)N[C@@H](CCCN)C(=O)N[C@@H](CC(=O)O)C(=O)N[C@H](C)C(=O)N[C@@H](CC(=O)O)C(=O)NCC(=O)N[C@H](CO)C(=O)N[C@@H]([C@@H](C)CC(=O)O)C(=O)N[C@@H](CC(=O)c2ccccc2N)C(=O)O[C@@H]1C` the Ratio (Enterococcus faecalis [16]) was >128, the MIC (Enterococcus faecalis [14]) was > 512 µg/mL and the Ratio (Enterococcus faecalis [17]) was 4. It also gave an MIC (Enterococcus faecalis [15]) of 64 µg/mL (≈ 39.5 µM).
